Literature values, collected in paper PMC4648373 (Cancer prevention research (Philadelphia, Pa.), 2015).
Where two headings read alike, the source gives them in different places.

Legend:
[1] = healthy human subjects
[2] = rodents
[3] = system: AR signaling; settings: cell culture models, same concentration range

conversion to DOH [1]	conversion to DOH [2]	Compound	anti-androgen (AR) signaling, cellular growth and survival activities [3]
extensive conversion	rapidly and extensively converted to DOH	CC(C)=CC(=O)O[C@H]1Cc2cc3ccc(=O)oc3cc2OC1(C)C [D, Decursin]	identical anti-androgen signaling and anti-proliferative activities
		CC1(C)Oc2cc3oc(=O)ccc3cc2C[C@@H]1O [DOH, decursinol]	much less inhibitory
extensive conversion	rapidly and extensively converted to DOH	C/C=C(/C)C(=O)O[C@H]1Cc2cc3ccc(=O)oc3cc2OC1(C)C [DA, decursinol angelate]	identical anti-androgen signaling and anti-proliferative activities
